Measured values from patent US6737383B1, “Herbicidal oxadiazolidines” (priority 1999, dated 2004).

Experiments:
winter wheat [1] = test: Test E winter wheat; type: in vivo, Triticum aestivum; conditions: Postemergence; for Wheat (winter) plant response rating: Rate 250 g/ha
Procedure, shortened: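 Greenhouse test: compounds in non-phytotoxic solvent with surfactant; for postemergence, sprayed on plants at 1- to 4-leaf stage grown in 60:40 sandy loam/potting mix. Injury rated visually against untreated controls after about 21 to 28 days.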

wild oat = test: Test E wild oat; type: in vivo, Avena fatua; conditions: Preemergence; for Wild oat plant response rating (0 to 100 scale): Rate 250 g/ha
Italian ryegrass = test: Test E Italian ryegrass; type: in vivo, Lolium multiflorum; conditions: Preemergence; for I. Ryegrass plant response rating (0 to 100 scale): Rate 250 g/ha
duck salad = test: Test B flood test duck salad; type: in vivo, Heteranthera limosa
Procedure, shortened: (§1)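 Flood test on plants grown to the 2-leaf stage; treated plants kept in greenhouse twelve to sixteen days, then visually rated against controls on a 0 (no effect) to 10 (complete control) scale.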

morningglory = test: Test B pre/postemergence morningglory; type: in vivo, Ipomoea hederacea; conditions: for Morningglory plant response rating (0 to 10 scale): 0 is no effect
Procedure, shortened: (§2)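 Herbicidal effect was estimated by eye on a ten-point control scale after plants spent twelve to sixteen days in a greenhouse following soil or foliar treatment. Foliar sprays targeted plants at one to four leaves; all doses were formulated in a non-phytotoxic solvent with surfactant.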

blackgrass = test: Test E blackgrass; type: in vivo, Alopecurus myosuroides; conditions: Preemergence; for Blackgrass plant response rating (0 to 100 scale): Rate 250 g/ha
winter barley = test: Test E winter barley; type: in vivo, Hordeum vulgare; conditions: Preemergence; for Barley (winter) plant response rating (0 to 100 scale): Rate 250 g/ha
green foxtail = test: Test E green foxtail; type: in vivo, Setaria viridis; conditions: Preemergence; for Green foxtail plant response rating (0 to 100 scale): Rate 250 g/ha
giant foxtail = test: Test B pre/postemergence giant foxtail; type: in vivo, Setaria faberii; conditions: for Giant foxtail plant response rating (0 to 10 scale): 0 is no effect
Procedure, shortened: as §2

rice = test: Test B flood test rice; type: in vivo, Oryza sativa
Procedure, shortened: as §1

winter wheat [2] = test: Test E winter wheat; type: in vivo, Triticum aestivum; conditions: Preemergence; for Wheat (winter) plant response rating (0 to 100 scale): Rate 250 g/ha
[3] = Rate 1000 g/ha, 0 to 100 scale where 0 is no effect and 100 is complete control
[4] = 0 to 100 scale where 0 is no effect and 100 is complete control
[5] = Rate 500 g/ha, 0 to 100 scale (0 no effect, 100 complete control)
[6] = Rate 1000 g/ha, 0 to 100 scale, 0 no effect, 100 complete control
[7] = Rate 62 g/ha, headed Pre-emergence (flood test species), scale 0 to 10 (0 no effect, 10 complete control)
[8] = Rate 125 g/ha, Pre-emergence, flood test species, scale 0 to 10 where 0 is no effect and 10 is complete control
[9] = Rate 250 g/ha, Pre-emergence, flood-test species, scale 0 to 10, 0 is no effect, 10 is complete control
[10] = Rate 500 g/ha, Pre-emergence, flood test species, scale 0 to 10 (0 no effect, 10 complete control)
[11] = Preemergence, Rate 62 g/ha, scale of 0 to 10 where 0 is no effect and 10 is complete control
[12] = Preemergence, Rate 250 g/ha, scale of 0 to 10 where 0 is no effect and 10 is complete control
[13] = Preemergence, Rate 500 g/ha, scale of 0 to 10 where 0 is no effect and 10 is complete control
[14] = Rate 62 g/ha, Postemergence, scale 0 to 10, 0 no effect, 10 complete control
[15] = Rate 125 g/ha, Postemergence, scale of 0 to 10 where 0 is no effect and 10 is complete control
[16] = Rate 125 g/ha, Preemergence, scale of 0 to 10 where 0 is no effect and 10 is complete control
[17] = Rate 250 g/ha, Postemergence, scale of 0 to 10 where 0 is no effect and 10 is complete control
[18] = Rate 500 g/ha, Postemergence, scale 0 to 10, 0 no effect, 10 complete control
[19] = Rate 1000 g/ha, 0 to 100 scale, 0 is no effect and 100 is complete control
[20] = Rate 500 g/ha, headed Pre-emergence (flood test species), scale 0 to 10 (0 no effect, 10 complete control)
[21] = Preemergence, Rate 125 g/ha, 10 is complete control
[22] = Preemergence, Rate 250 g/ha, scale 0 to 10, 0 is no effect, 10 is complete control
[23] = Rate 62 g/ha, Postemergence, scale of 0 to 10 where 0 is no effect and 10 is complete control
[24] = Rate 125 g/ha, Postemergence, scale 0 to 10
[25] = Rate 500 g/ha, Postemergence, scale 0 to 10
[26] = Rate 500 g/ha, 0 to 100 scale where 0 is no effect and 100 is complete control
[27] = Postemergence, Rate 125 g/ha, scale of 0 to 10 where 0 is no effect and 10 is complete control
[28] = Preemergence, Rate 500 g/ha, scale 0 to 10 (0 no effect, 10 complete control)
[29] = Rate 250 g/ha, Postemergence, scale 0 to 10, 0 is no effect, 10 is complete control

CC(C)N(C(=O)n1oc(=O)n(C2CCCC2)c1=O)c1ccc(Cl)cc1 [Compound 282]
Plant response rating, Wheat (winter) (winter wheat [1]; [3]): 50
Wheat (winter) plant response rating (winter wheat [1]; [4]): 20
Plant response rating, Wheat (winter) (winter wheat [1]; Rate 500 g/ha, 0 to 100 scale, 0 is no effect, 100 is complete control): 30
Wild oat plant response rating (0 to 100 scale) (wild oat): 70
Plant response rating, Wild oat (wild oat; [5]): 70
Plant response rating, Wild oat (wild oat; [6]): 80
I. Ryegrass plant response rating (0 to 100 scale) (Italian ryegrass): 70
Plant response rating, I. Ryegrass (Italian ryegrass; [5]): 70
Plant response rating, I. Ryegrass (Italian ryegrass; [6]): 70
Ducksalad plant response rating (duck salad; [7]): 0
Ducksalad plant response rating (duck salad; [8]): 0
Ducksalad plant response rating (duck salad; [9]): 0
Ducksalad plant response rating (duck salad; [10]): 0
Morningglory plant response rating (morningglory; [11]): 0
Morningglory plant response rating (morningglory; [12]): 0
Plant response rating, Morningglory (morningglory; [13]): 0
Morningglory plant response rating (morningglory; [14]): 6
Morningglory plant response rating (morningglory; [15]): 6
Morningglory plant response rating (morningglory; [16]): 0
Plant response rating, Morningglory (morningglory; [17]): 7
Morningglory plant response rating (morningglory; [18]): 9
Blackgrass plant response rating (0 to 100 scale) (blackgrass): 60
Plant response rating, Blackgrass (blackgrass; [5]): 60
Plant response rating, Blackgrass (blackgrass; [6]): 70
Barley (winter) plant response rating (0 to 100 scale) (winter barley): 50
Plant response rating, Barley (winter) (winter barley; [5]): 50
Plant response rating, Barley (winter) (winter barley; [6]): 70
Green foxtail plant response rating (0 to 100 scale) (green foxtail): 80
Plant response rating, Green foxtail (green foxtail; [5]): 100
Plant response rating, Green foxtail (green foxtail; [6]): 100
Giant foxtail plant response rating (giant foxtail; [11]): 8
Giant foxtail plant response rating (giant foxtail; [12]): 10
Plant response rating, Giant foxtail (giant foxtail; [13]): 10
Giant foxtail plant response rating (giant foxtail; [14]): 0
Giant foxtail plant response rating (giant foxtail; [15]): 0
Giant foxtail plant response rating (giant foxtail; [16]): 8
Plant response rating, Giant foxtail (giant foxtail; [17]): 0
Giant foxtail plant response rating (giant foxtail; [18]): 2
Rice plant response rating (rice; [7]): 0
Rice plant response rating (rice; [8]): 0
Rice plant response rating (rice; [9]): 0
Rice plant response rating (rice; [10]): 0
Wheat (winter) plant response rating (0 to 100 scale) (winter wheat [2]): 60
Plant response rating, Wheat (winter) (winter wheat [2]; [5]): 60
Plant response rating, Wheat (winter) (winter wheat [2]; [6]): 70

Cc1ccccc1-n1c(=O)on(C(=O)N(c2ccccc2F)C(C)C)c1=O [Compound 204]
Plant response rating, Wheat (winter) (winter wheat [1]; [19]): 30
Wild oat plant response rating (0 to 100 scale) (wild oat): 50
Plant response rating, Wild oat (wild oat; [3]): 50
I. Ryegrass plant response rating (0 to 100 scale) (Italian ryegrass): 50
Plant response rating, I. Ryegrass (Italian ryegrass; [3]): 65
Ducksalad plant response rating (duck salad; [7]): 0
Ducksalad plant response rating (duck salad; [8]): 0
Ducksalad plant response rating (duck salad; [9]): 0
Plant response rating, Ducksalad (duck salad; [20]): 0
Morningglory plant response rating (morningglory; [11]): 0
Morningglory plant response rating (0 to 10 scale) (morningglory; [21]): 0
Morningglory plant response rating (morningglory; [22]): 0
Plant response rating, Morningglory (morningglory; [13]): 0
Morningglory plant response rating (morningglory; [23]): 3
Morningglory plant response rating (morningglory; [24]): 3
Plant response rating (0 to 10; 0 is no effect, 10 is complete control), Morningglory (morningglory; Rate 250 g/ha, Postemergence): 3
Morningglory plant response rating (morningglory; [25]): 8
Blackgrass plant response rating (0 to 100 scale) (blackgrass): 55
Plant response rating, Blackgrass (blackgrass; [3]): 95
Barley (winter) plant response rating (0 to 100 scale) (winter barley): 50
Plant response rating, Barley (winter) (winter barley; [3]): 30
Green foxtail plant response rating (0 to 100 scale) (green foxtail): 75
Plant response rating, Green foxtail (green foxtail; [3]): 100
Giant foxtail plant response rating (giant foxtail; [11]): 7
Giant foxtail plant response rating (0 to 10 scale) (giant foxtail; [21]): 9
Giant foxtail plant response rating (giant foxtail; [22]): 10
Plant response rating, Giant foxtail (giant foxtail; [13]): 10
Giant foxtail plant response rating (giant foxtail; [23]): 0
Giant foxtail plant response rating (giant foxtail; [24]): 0
Plant response rating (0 to 10; 0 is no effect, 10 is complete control), Giant foxtail (giant foxtail; Rate 250 g/ha, Postemergence): 0
Giant foxtail plant response rating (giant foxtail; [25]): 3
Rice plant response rating (rice; [7]): 0
Rice plant response rating (rice; [8]): 0
Rice plant response rating (rice; [9]): 0
Plant response rating, Rice (rice; [20]): 0
Wheat (winter) plant response rating (0 to 100 scale) (winter wheat [2]): 30
Plant response rating, Wheat (winter) (winter wheat [2]; [3]): 50

CC1CCCCC1n1c(=O)on(C(=O)N(c2ccc(F)cc2)C(C)C)c1=O (centres unmarked) [Compound 161]
Plant response rating, Wheat (winter) (winter wheat [1]; [19]): 50
Plant response rating, Wheat (winter) (winter wheat [1]; Rate 500 g/ha, 0 to 100 scale, 0 no effect, 100 complete control): 35
Wheat (winter) plant response rating (winter wheat [1]; [4]): 30
Wild oat plant response rating (0 to 100 scale) (wild oat): 50
Plant response rating, Wild oat (wild oat; [26]): 50
Plant response rating, Wild oat (wild oat; [3]): 60
I. Ryegrass plant response rating (0 to 100 scale) (Italian ryegrass): 60
Plant response rating, I. Ryegrass (Italian ryegrass; [26]): 65
Plant response rating, I. Ryegrass (Italian ryegrass; [3]): 85
Morningglory plant response rating (morningglory; [27]): 5
Morningglory plant response rating (morningglory; [11]): 0
Morningglory plant response rating (0 to 10 scale) (morningglory; [21]): 0
Morningglory plant response rating (morningglory; [22]): 0
Morningglory plant response rating (morningglory; [28]): 0
Morningglory plant response rating (morningglory; [23]): 4
Plant response rating, Morningglory (morningglory; [29]): 7
Morningglory plant response rating (morningglory; [25]): 10
Blackgrass plant response rating (0 to 100 scale) (blackgrass): 30
Plant response rating, Blackgrass (blackgrass; [26]): 50
Plant response rating, Blackgrass (blackgrass; [3]): 55
Barley (winter) plant response rating (0 to 100 scale) (winter barley): 30
Plant response rating, Barley (winter) (winter barley; [26]): 40
Plant response rating, Barley (winter) (winter barley; [3]): 40
Green foxtail plant response rating (0 to 100 scale) (green foxtail): 60
Plant response rating, Green foxtail (green foxtail; [26]): 70
Plant response rating, Green foxtail (green foxtail; [3]): 90
Giant foxtail plant response rating (giant foxtail; [27]): 0
Giant foxtail plant response rating (giant foxtail; [11]): 4
Giant foxtail plant response rating (0 to 10 scale) (giant foxtail; [21]): 9
Giant foxtail plant response rating (giant foxtail; [22]): 9
Giant foxtail plant response rating (giant foxtail; [28]): 10
Giant foxtail plant response rating (giant foxtail; [23]): 0
Plant response rating, Giant foxtail (giant foxtail; [29]): 3
Giant foxtail plant response rating (giant foxtail; [25]): 7
Wheat (winter) plant response rating (0 to 100 scale) (winter wheat [2]): 10
Plant response rating, Wheat (winter) (winter wheat [2]; [26]): 20
Plant response rating, Wheat (winter) (winter wheat [2]; [3]): 45
